According to patent US20070161547A1, “Modulation of survivin expression” (priority 2003, published 2007):
Like-named read-outs stand apart in the source and are kept apart here. d = 2'-deoxy (DNA)

Columns and labels:
survivin protein = assay: IC50 of dsRNA for survivin protein, quantitative Western blot ("W"); format: cell-based, human; conditions: for IC50: W (Western blot), HeLa cells
Procedure: Western blot analysis (immunoblot analysis) is carried out using standard methods. Cells are harvested 16-20 hours after oligonucleotide treatment, washed once with PBS, suspended in Laemmli buffer (100 μl/well), boiled for 5 minutes and loaded on a 16% SDS-PAGE gel. Gels are run for 1.5 hours at 150 V, and transferred to membrane for western blotting. Appropriate primary antibody directed to survivin is used, with a radiolabelled or fluorescently labeled secondary antibody directed against the primary antibody species. Bands are visualized using a PHOSPHORIMAGER™ (Molecular Dynamics, Sunnyvale, Calif.).
(§1) For western blot analysis, cells are plated in 10 cm tissue culture dishes (Falcon, #3003) at a density of 7.5×10^5 cells/dish. For RT-PCR analysis, 96-well plates (Corning Incorporated, #3596) are plated with 1×10^4 cells/well. Lipofectin (GIBCO/Invitrogen) transfection reagent is used at a concentration of 3 ul/ml OPTIMEM reduced serum medium (Gibco/Invitrogen)/100 nM siRNA duplex. Lipofectin reagent is incubated with OPTIMEM medium for 30 minutes prior to the addition of siRNA. The desired amount of siRNA is added and mixed. Further 1:1 dilutions are performed in OPTIMEM. Cells are washed twice with 1× phosphate buffered saline and then treated with the siRNA/Lipofectin mixture in OPTIMEM. After a 4 hr incubation period, OPTIMEM medium is replaced with complete growth medium. Cells are harvested after additional 16-20 hrs for Western blot or RT-PCR analysis.
At the end of the incubation period culture medium is removed and cells are washed twice with PBS. Cells are lysed in RIPA buffer (20 mM Tris-HCl, pH 7.4, 5 mM EDTA, 50 mM NaCl, 10 mM Sodium Pyrophosphate, 50 mM Sodium Fluoride, and 1% Nonidet P40) plus Complete™ Mini protease inhibitor tablets (Roche, #1836153) and 1 mM Sodium orthovanadate (Sigma) by directly adding buffer to the plate. Lysates are collected by scrapping, transferred to microfuge tubes and cleared from the cellular debris by centrifugation at 14,000 rpm for 30 minutes at 4° C. Protein concentrations are determined using BCA protein assay yeagents (Pierce). Total cellular protein is subjected to SDS-PAGE and transferred onto Immobilon-P membranes (Millipore, #IPVHO91). Membranes are probed with primary antibodies to survivin (R&D Systems, #AF886) and to β-Actin (Sigma, #A5441). Horseradish peroxidase linked Anti-rabbit Ig, and anti-mouse Ig, antibodies (Pharmacia) are used as secondary antibodies. Antigen-antibody complexes are visualized by incubation of membrane in SuperSigmal West Pico chemiluminescence reagents (Pierce) for 5 minutes followed by capturing of the chemiluminescence using Fluor-S imager (Biorad) equipped with the cool CCD camera. The protein bands of interest for each sample are quantified using Quantity One software (Biorad). The percentage inhibition for each samples are calculated by comparing the survivin/Actin protein ratio for the sample to survivin/Actin protein ratio for the untreated control. The IC50 is derived from the non-linear regression analysis of the percentage inhibition data using GraphPad Prism software (GraphPad Software).
The constructs tested comprise the antisense strand in the 5′-3′ orientation, and the sense strand in the 5′ to 3′ orientation, In Table 15, “D” is dose response (mRNA levels) and “W” is Western blot. All internucleoside linkages are phosphodiester unless otherwise noted by a lowercase “s” indicating a phosphorothioate linkage.

[1] = Stability of siRNA constructs in mouse plasma, capillary gel electrophoresis; format: in vitro ADME; conditions: for Stability (t ½ in hours): Table 17, 25% mouse plasma, 37° C., pseudo first-order half-life of intact siRNA duplex
Procedure: Intact duplex RNA was analyzed from diluted mouse-plasma using an extraction and capillary electrophoresis method similar to those previously described (Leeds, J. M., et al., 1996, Anal. Biochem., 235, 36-43; Geary, R. S., et al., 1999, Anal. Biochem., 274, 241-248. Heparin-treated mouse plasma, from 3-6 month old female Balb/c mice (Charles River Labs) was thawed from −80° C. and diluted to 25% (v/v) with phosphate buffered saline (140 mM NaCl, 3 mM KCl, 2 mM potassium phosphate, 10 mM sodium phosphate). Approximately 10 nmol of pre-annealed siRNA, at a concentration of 100 μM, was added to the 25% plasma and incubated at 37° C. for 0, 15, 30, 45, 60, 120, 180, 240, 360, and 420 minutes. Aliquots were removed at the indicated time, treated with EDTA to a final concentration of 2 mM, and placed on ice at 0° C. until analyzed by capillary gel electrophoresis (Beckman P/ACE MDQ-UV with eCap DNA Capillary tube). The area of the siRNA duplex peak was measured and used to calculate the percent of intact siRNA remaining. Adenosine triphosphate (ATP) was added at a concentration of 2.5 mM to each injection as an internal calibration standard. A zero time point was taken by diluting siRNA in phosphate buffered saline followed by capillary electrophoresis. Percent intact siRNA was plotted against time, allowing the calculation of a pseudo first-order half-life.

human survivin mRNA = assay: IC50 of dsRNA for survivin mRNA, dose response by quantitative RT-PCR ("D"); format: cell-based
Procedure: Representative parameters that can be studied include, for example, translation of survivin mRNAs or survivin protein synthesis; effect on surrogate markers; or any other parameter that is indicative of potential dsRNA therapeutic effectiveness that can be conveniently measured in vitro.
as §1
Total RNA is isolated using RNeasy® 96 kit according to recommended protocol (Qiagen). Briefly, cells are washed with 200 ul PBS after removal of growth medium. Following washing, 100 μl buffer RLT is added, plate is shaken vigorously for about 20 seconds. To each well 100 μl 70% ethanol are added and mixed by pipetting up and down three times. Samples are then applied into the wells of the RNeasy 96 plate placed in the QIAvac top base of the QIAvac 96 manifold, which is attached to a vacuum source. Vacuum is applied for 30 seconds or until transfer is complete. To each well 80 μl of DNase I incubation mix (20 mM Tris-HCl, pH 8.4, 2 mM MgCl2, 50 mM KCl and 225 Units/ml DNase I from Invitrogen) is added and incubated at room temperature for 30 minutes. Buffer RW1 (1 ml/well) is added and the vacuum is applied for 30 seconds. Buffer RPE (1 ml/well) is added to each well and vacuum is applied for 30 seconds. Washing steps with buffer RW1 and RPE1 are repeated once more. The plate is then removed from the manifold and blotted dry on paper towels. The plate is placed back in the QIAvac manifold and the vacuum is applied for 10 minutes. To elute RNA 30 μl of RNase-free water is added directly onto the membrane of each well, incubated for 1 minutes and vacuum is applied for 30 seconds. In order to maximize the recovery of total RNA the elution step is repeated with additional 30 μl/well RNase-free water.
Quantitation of survivin and GAPDH mRNA levels is determined by real-time quantitative RT-PCR using the ABI PRISM® 7900 Sequence Detection System (Applied Biosystems). RT-PCR reactions are carried out by adding 15 ul of TaqMan One Step PCR Master Mix (Applied Biosystems, #4309169) reagents (containing 100 nM each of forward primer and reverse primer, and 200 nM probe) to 96-well plates with 10 μl total RNA. For human survivin, the forward PCR primer is: 5′[…]3′ (SEQ ID NO: 186), and the reverse primer is: 5′[…]3′ (SEQ ID NO: 187). The survivin TaqMan® probe used is 5′(FAM)[…]3′ (SEQ ID NO: 188) (Biosearch Technologies, Inc.). This primer-probe set, designed to SEQ ID No 14 was used for all experiments in Examples 15 to the end. For human GAPDH, TaqMan GAPDH Control Reagent Kit is used (Applied Biosystems, #402869). The percentage inhibition for each samples are calculated by comparing the survivin/GAPDH mRNA ratio for the sample to survivin/GAPDH mRNA ratio for the untreated control. The IC50 is derived from the non-linear regression analysis of the percentage inhibition data using GraphPad Prism software (GraphPad Software).
The constructs tested comprise the antisense strand in the 5′-3′ orientation, and the sense strand in the 5′ to 3′ orientation, In Table 15, “D” is dose response (mRNA levels) and “W” is Western blot. […]

[2] = Table 16, cell line not given, read-out: IC50 (nM) mRNA, dsRNA to human survivin

Row | Substance | IC50 (survivin protein) [nM] | other results
1 | 339046_339076 (antisense AACCCUGGAAGUGGUGCAGC; sense GCUGCACCACUUCCAGGGUU; siRNA; unmodified RNA) | 3.5 | 
2 | ISIS 353537_343868: dsRNA duplex: antisense 353537 (4'-thio), sense 343868 (unmodified) (antisense UUUGAAAAUGUUGAUCUCC; sense GGAGAUCAACAUUUUCAAA; 4'-thio antisense, chemistry not fully specified) |  | Stability (t ½ in hours) [1]: 3 h; IC50 (human survivin mRNA; [2]): 0.18 nM
3 | Compound U17: canonical siRNA targeted to human survivin, two deoxythymidines at 3' end of each strand (Table 14) (antisense GGAGAUCAACAUUUUCAAA; sense UUUGAAAAUGUUGAUCUCC; RNA, 3' dTdT, backbone not given here) |  | activity in quantitative RT-PCR analysis (human survivin mRNA; in words): potent activity; activity in Western blot analysis (survivin protein; in words): potent activity
4 | 339050_339080 (antisense AGAAGCACCUCUGGUGCCAC; sense GUGGCACCAGAGGUGCUUCU; siRNA; unmodified RNA) | ≥ 100 | 
5 | 339057_339087 (antisense CAGGGACUCUGUCUCCAUUC; sense GAAUGGAGACAGAGUCCCUG; siRNA; unmodified RNA) | ≥ 100 | 
6 | 339063_339093 (antisense AAGGAGUAUCUGCCAGACGC; sense GCGUCUGGCAGAUACUCCUU; siRNA; unmodified RNA) | 6.2 | 
7 | 339064_339094 (antisense UAAUCACACAGCAGUGGCAA; sense UUGCCACUGCUGUGUGAUUA; siRNA; unmodified RNA) | 5.45 | 
8 | 339066_339096 (antisense AAAGGAUUUAGGCCACUGCC; sense GGCAGUGGCCUAAAUCCUUU; siRNA; unmodified RNA) | 1.72 | 
9 | 339054_339084 (antisense CAACAUGAGGUCCAGACACA; sense UGUGUCUGGACCUCAUGUUG; siRNA; unmodified RNA) | ≥ 100 | 
10 | 339051_339081 (antisense UCCCUCACUUCUCACCUGGU; sense ACCAGGUGAGAAGUGAGGGA; siRNA; unmodified RNA) | ≥ 100 | 
11 | 339059_339089 (antisense GCUAUUCUGUGAAUUAACAA; sense UUGUUAAUUCACAGAAUAGC; siRNA; unmodified RNA) | 6.41 | 
12 | ISIS 355713_355714: blunt-ended siRNA duplex, alternating 2'-O-methyl/2'-fluoro in opposing register: antisense 355713, sense 355714 (antisense UUUGAAAAUGUUGAUCUCC; sense GGAGAUCAACAUUUUCAAA; chemistry not fully specified) |  | Stability (t ½ in hours) [1]: >4 h; stability of construct in serum (mouse plasma) ([1]; in words): remains relatively unchanged and is stable in serum; IC50 (human survivin mRNA; [2]): 0.06 nM
13 | 339055_339085 (antisense AGUCCACACUCAGGACUGUG; sense CACAGUCCUGAGUGUGGACU; siRNA; unmodified RNA) | ≥ 100 | 
14 | 339044_339074 (antisense AGGGCUGCCAGGCAGGGGGC; sense GCCCCUGCCUGGCAGCCCU; siRNA; listed as RNA, chemistry not fully specified) | 5.3 | 
15 | 339062_339092 (antisense UCCACCUGAAGUUCACCCCG; sense CGGGGUGAACUUCAGGUGGA; siRNA; unmodified RNA) | 65.2 | IC50 (human survivin mRNA; D (dose response, mRNA levels), HeLa cells, read-out: IC50): 1.8 nM
16 | 339049_339079 (antisense AGCACAGUUGAAACAUCUAA; sense UUAGAUGUUUCAACUGUGCU; siRNA; unmodified RNA) | 6.12 | 
